In PubChem BioAssay AID248 (DTP/NCI, 2004):
“And” between values parts separate entries of the source, which are not always exact repeats. Equal values may be shown once. Toxic doses and inconclusive results are not listed. No stated cut-off is given here; in the data, active means T/C of 150% or more; inactive means T/C below 125%.

System: L1210 leukemia ip in BDF1 mice, survival T/C
Test: NCI In Vivo Anticancer Drug Screen. Data for tumor model L1210 Leukemia (intraperitoneal) in B6D2F1 (BDF1) mice
Conditions: endpoint: mean survival time, higher = longer survival
Procedure, shortened: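 In this screen, tumor-bearing mice given compound are compared to those given vehicle, and their survival values are reported as a treated-to-control quotient.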

[1] = dose: 100.0 mg/kg/injection, schedule: Q04DX003 (ip), vehicle: Klucel (hydroxypropylcellulose) (HPC)
[2] = dose: 200.0 mg/kg/injection, schedule: Q04DX003 (ip), vehicle: Klucel (hydroxypropylcellulose) (HPC)
[3] = dose: 400.0 mg/kg/injection, schedule: Q04DX003 (ip), vehicle: Klucel (hydroxypropylcellulose) (HPC)
[4] = dose: 100.0 mg/kg/injection, schedule: Q01DX009 (ip), vehicle: saline
[5] = dose: 200.0 mg/kg/injection, schedule: Q01DX009 (ip), vehicle: saline
[6] = dose: 400.0 mg/kg/injection, schedule: Q01DX009 (ip), vehicle: saline
[7] = dose: 100.0 mg/kg/injection, schedule: Q01DX001 (ip), vehicle: saline
[8] = dose: 200.0 mg/kg/injection, schedule: Q01DX001 (ip), vehicle: saline
[9] = dose: 400.0 mg/kg/injection, schedule: Q01DX001 (ip), vehicle: saline

Measured: T/C

CCCCCCCCCCCCCCCCS(=O)(=O)c1ccccc1NC(N)=O
inactive: [1] 97 % of control | [2] 98 % of control | [3] 95 % of control

CCc1cccc(CC)c1N=C=Nc1c(CC)cccc1CC
inactive: dose: 100.0 mg/kg/injection, schedule: Q04DX003 (ip), vehicle: other 104 % of control | dose: 200.0 mg/kg/injection, schedule: Q04DX003 (ip), vehicle: other 100 % of control | dose: 400.0 mg/kg/injection, schedule: Q04DX003 (ip), vehicle: other 104 % of control

CCOC(=O)N\C(N)=N/N=C(C)\C=N\N=C(/N)NC(=O)OCC
inactive: dose: 15.0 mg/kg/injection, schedule: Q01DX Z (ip), vehicle: carboxymethylcellulose (CMC) 95 % of control | dose: 30.0 mg/kg/injection, schedule: Q01DX Z (ip), vehicle: carboxymethylcellulose (CMC) 101 % of control | dose: 60.0 mg/kg/injection, schedule: Q01DX Z (ip), vehicle: carboxymethylcellulose (CMC) 106 % of control | dose: 120.0 mg/kg/injection, schedule: Q01DX Z (ip), vehicle: carboxymethylcellulose (CMC) 97 % of control

O=Cc1ccc(O)c(O)c1
inactive: dose: 100.0 mg/kg/injection, schedule: Q01DX Z (ip), vehicle: other 101 % of control and 102 % of control | dose: 150.0 mg/kg/injection, schedule: Q01DX Z (ip), vehicle: other 101 % of control and 107 % of control | dose: 160.0 mg/kg/injection, schedule: Q01DX Z (ip), vehicle: carboxymethylcellulose (CMC) 115 % of control | dose: 160.0 mg/kg/injection, schedule: Q01DX Z (ip), vehicle: other 122 % of control | dose: 225.0 mg/kg/injection, schedule: Q01DX Z (ip), vehicle: other 98 % of control and 120 % of control | dose: 240.0 mg/kg/injection, schedule: Q01DX Z (ip), vehicle: carboxymethylcellulose (CMC) 122 % of control | dose: 340.0 mg/kg/injection, schedule: Q01DX Z (ip), vehicle: other 101 % of control and 107 % of control | dose: 510.0 mg/kg/injection, schedule: Q01DX Z (ip), vehicle: other 113 % of control | dose: 540.0 mg/kg/injection, schedule: Q01DX Z (ip), vehicle: other 93 % of control | dose: 750.0 mg/kg/injection, schedule: Q01DX Z (ip), vehicle: other 113 % of control

CCCN(C)N=Nc1ccccc1C(=O)O
inactive: dose: 12.5 mg/kg/injection, schedule: Q01DX009 (ip), vehicle: Klucel (hydroxypropylcellulose) (HPC) 106 % of control and 113 % of control and 124 % of control | dose: 12.5 mg/kg/injection, schedule: Q04DX003 (ip), vehicle: Klucel (hydroxypropylcellulose) (HPC) 105 % of control | dose: 25.0 mg/kg/injection, schedule: Q01DX009 (ip), vehicle: Klucel (hydroxypropylcellulose) (HPC) 114 % of control and 116 % of control | dose: 25.0 mg/kg/injection, schedule: Q04DX003 (ip), vehicle: Klucel (hydroxypropylcellulose) (HPC) 118 % of control | dose: 50.0 mg/kg/injection, schedule: Q04DX003 (ip), vehicle: Klucel (hydroxypropylcellulose) (HPC) 105 % of control | dose: 75.0 mg/kg/injection, schedule: Q01DX009 (ip), vehicle: Klucel (hydroxypropylcellulose) (HPC) 87 % of control | [1] 113 % of control

O=C(Nc1cc([N+](=O)[O-])ccc1F)Oc1ccc2ccccc2c1
inactive: [4] 111 % of control | [5] 95 % of control | [6] 106 % of control

Cc1cn(C2SC(CO)C(O)C2O)c(=O)[nH]c1=O (centres undefined)
inactive: dose: 50.0 mg/kg/injection, schedule: Q01DX001 (ip), vehicle: saline 97 % of control | [7] 105 % of control | [8] 100 % of control | [9] 100 % of control

CC1(C)CCc2c(cc(OCc3ccccc3)c(-c3c(OCc4ccccc4)cc4c(c3O)CCC(C)(C)O4)c2O)O1
inactive: [1] 94 % of control | [2] 93 % of control | [3] 94 % of control

CN(C)c1ccc(/C=N/Nc2nnc(N/N=C/c3ccc(N(C)C)cc3)c3ccccc23)cc1
inactive: dose: 50.0 mg/kg/injection, schedule: Q01DX001 (ip), vehicle: carboxymethylcellulose (CMC) 98 % of control and 91 % of control | dose: 100.0 mg/kg/injection, schedule: Q01DX001 (ip), vehicle: carboxymethylcellulose (CMC) 86 % of control | dose: 200.0 mg/kg/injection, schedule: Q01DX001 (ip), vehicle: carboxymethylcellulose (CMC) 93 % of control and 91 % of control | dose: 400.0 mg/kg/injection, schedule: Q01DX001 (ip), vehicle: carboxymethylcellulose (CMC) 100 % of control and 104 % of control

CC(C)(CO)N=Cc1ccc(Cl)cc1Cl
inactive: [7] 93 % of control | [8] 102 % of control | [9] 102 % of control

COc1cccc(NC(=S)NC(Cc2ccccc2)c2ccccc2)c1 (centres undefined)
inactive: dose: 100.0 mg/kg/injection, schedule: Q04DX002 (ip), vehicle: Klucel (hydroxypropylcellulose) (HPC) 94 % of control | dose: 200.0 mg/kg/injection, schedule: Q04DX002 (ip), vehicle: Klucel (hydroxypropylcellulose) (HPC) 101 % of control | dose: 400.0 mg/kg/injection, schedule: Q04DX002 (ip), vehicle: Klucel (hydroxypropylcellulose) (HPC) 97 % of control

CC1(C)N=C(N)N=C(N)N1c1ccc(C(=O)Nc2cccc(S(=O)(=O)F)c2)cc1
inactive: dose: 0.8 mg/kg/injection, schedule: Q01DX009 (ip), vehicle: saline 97 % of control | dose: 4.0 mg/kg/injection, schedule: Q01DX009 (ip), vehicle: saline 101 % of control | dose: 20.0 mg/kg/injection, schedule: Q01DX009 (ip), vehicle: saline 97 % of control | [4] 100 % of control | dose: 500.0 mg/kg/injection, schedule: Q01DX009 (ip), vehicle: saline 92 % of control

COc1ccc(/C=C2/COC/C(=C/c3ccc(OC)c(OC)c3)C2=O)cc1OC
inactive: [4] 98 % of control | dose: 100.0 mg/kg/injection, schedule: Q04DX003 (ip), vehicle: saline 101 % of control | [5] 93 % of control | dose: 200.0 mg/kg/injection, schedule: Q04DX003 (ip), vehicle: saline 95 % of control | [6] 90 % of control | dose: 400.0 mg/kg/injection, schedule: Q04DX003 (ip), vehicle: saline 93 % of control

NC(=Nc1ccc(N)cc1)c1ccc(C(N)=Nc2ccc(N)cc2)cc1
inactive: dose: 2.5 mg/kg/injection, schedule: Q01DX015 (ip), vehicle: water 98 % of control | dose: 5.0 mg/kg/injection, schedule: Q01DX015 (ip), vehicle: water 100 % of control | dose: 10.0 mg/kg/injection, schedule: Q01DX015 (ip), vehicle: water 114 % of control | dose: 20.0 mg/kg/injection, schedule: Q01DX015 (ip), vehicle: water 100 % of control | dose: 36.7 mg/kg/injection, schedule: Q01DX015 (ip), vehicle: water 109 % of control | dose: 73.5 mg/kg/injection, schedule: Q01DX015 (ip), vehicle: water 105 % of control

CCCC/C(=N\OP(=O)(OCC)OCC)c1ccccc1
inactive: dose: 75.0 mg/kg/injection, schedule: Q01DX001 (ip), vehicle: saline 101 % of control | dose: 150.0 mg/kg/injection, schedule: Q01DX001 (ip), vehicle: saline 107 % of control | dose: 300.0 mg/kg/injection, schedule: Q01DX001 (ip), vehicle: saline 91 % of control

O=Cc1ccc2c(c1)c1ccccc1n2C1OC(CO)C(O)C(O)C1O (centres undefined)
inactive: dose: 60.0 mg/kg/injection, schedule: Q04DX002 (ip), vehicle: DMSO 102 % of control | dose: 120.0 mg/kg/injection, schedule: Q04DX002 (ip), vehicle: DMSO 97 % of control

COc1ccc(C(=O)O)c(O)c1O
inactive: dose: 100.0 mg/kg/injection, schedule: Q01DX009 (ip), vehicle: saline with Tween-80 102 % of control | dose: 200.0 mg/kg/injection, schedule: Q01DX009 (ip), vehicle: saline with Tween-80 104 % of control | dose: 400.0 mg/kg/injection, schedule: Q01DX009 (ip), vehicle: saline with Tween-80 101 % of control

C/C(=N/NC(N)=S)c1ccc[nH]1
inactive: dose: 100.0 mg/kg/injection, schedule: Q01DX001 (ip), vehicle: Klucel (hydroxypropylcellulose) (HPC) 108 % of control | dose: 200.0 mg/kg/injection, schedule: Q01DX001 (ip), vehicle: Klucel (hydroxypropylcellulose) (HPC) 93 % of control
